Legend:
[1] = biological target: T1, DGKα (hDGKalpha(1-735)-N-His) (Homo sapiens, UniProt P23743); assay: In vitro DGK inhibition assay, DGKalpha ADP Glo (in house); type: biochemical; settings: 4 nM DGKα, 25 μM ATP, 125 uM DLG in liposomes, 1 hour reaction
T1 construct: hDGKalpha(1-735)-N-His; His (N); made in house; host or cells: Sf21 insect cells (baculovirus)
Experimental: (§1) DGKα and ζ kinases use ATP to phosphorylate the substrate 1,2-dilauroyl-sn-glycerol (DLG, incorporated in the liposomes). ATP is converted to ADP as a result of this enzymatic reaction. After the kinase reaction, an ATP-depletion reagent is added to terminate the kinase reaction and deplete any remaining ATP, leaving only ADP. Second, a detection reagent is added to simultaneously convert ADP to ATP and allow the newly synthesized ATP to be converted to light using a coupled luciferase/luciferin reaction.
(§2) Full length DGKα and ζ were expressed in Sf21 insect cells by infecting the cells with the baculovirus stock at MOI of 2. Purification of both enzymes was performed as previously described by Takahashi et al., PeerJ, 2018 (Takahashi, D.; Sakane, F. Expression and purification of human diacylglycerol 5 kinase alpha from baculovirus-infected insect cells for structural studies. PeerJ2018, 6, No. e5449).
(§3) A concentrated liposome solution was prepared in assay buffer without DTT and BSA: 2 mM of DLG in 21 mM of total liposome (2 mM DLG/8 mM PS/11 mM PC). The reaction mixtures contain the assay buffer with a final DLG concentration of 125 uM ATP concentrations of 25 μM (for DGKA assay) or 50 μM (for DGKZ assay). The reactions were started by addition of DGK α and ζ kinases at 4 nM and 2 nM final concentrations, respectively. After 1 hour reaction, the amount of ADP formed was detected with the ADP-Glo kinase assay (Promega) according to the manufacturer instructions. Compounds were added in 11-points dose response, starting at […], 1:3 dilutions, with a final DMSO concentration of 2%. The multidrop combi was used as a liquid handler and luminescence was read with 0.5 s by the envision reader (PE).

[2] = biological target: T2, DGKζ (hDGKzeta(1-928)-N-His) (Homo sapiens, UniProt Q13574); assay: In vitro DGK inhibition assay, DGKzeta ADP Glo (in house); type: biochemical; settings: 2 nM DGKζ, 50 μM ATP, 125 uM DLG in liposomes, 1 hour reaction
T2 construct: hDGKzeta(1-928)-N-His; His (N); made in house; host or cells: Sf21 insect cells (baculovirus)
T2 sequence (Q13574 whole entry): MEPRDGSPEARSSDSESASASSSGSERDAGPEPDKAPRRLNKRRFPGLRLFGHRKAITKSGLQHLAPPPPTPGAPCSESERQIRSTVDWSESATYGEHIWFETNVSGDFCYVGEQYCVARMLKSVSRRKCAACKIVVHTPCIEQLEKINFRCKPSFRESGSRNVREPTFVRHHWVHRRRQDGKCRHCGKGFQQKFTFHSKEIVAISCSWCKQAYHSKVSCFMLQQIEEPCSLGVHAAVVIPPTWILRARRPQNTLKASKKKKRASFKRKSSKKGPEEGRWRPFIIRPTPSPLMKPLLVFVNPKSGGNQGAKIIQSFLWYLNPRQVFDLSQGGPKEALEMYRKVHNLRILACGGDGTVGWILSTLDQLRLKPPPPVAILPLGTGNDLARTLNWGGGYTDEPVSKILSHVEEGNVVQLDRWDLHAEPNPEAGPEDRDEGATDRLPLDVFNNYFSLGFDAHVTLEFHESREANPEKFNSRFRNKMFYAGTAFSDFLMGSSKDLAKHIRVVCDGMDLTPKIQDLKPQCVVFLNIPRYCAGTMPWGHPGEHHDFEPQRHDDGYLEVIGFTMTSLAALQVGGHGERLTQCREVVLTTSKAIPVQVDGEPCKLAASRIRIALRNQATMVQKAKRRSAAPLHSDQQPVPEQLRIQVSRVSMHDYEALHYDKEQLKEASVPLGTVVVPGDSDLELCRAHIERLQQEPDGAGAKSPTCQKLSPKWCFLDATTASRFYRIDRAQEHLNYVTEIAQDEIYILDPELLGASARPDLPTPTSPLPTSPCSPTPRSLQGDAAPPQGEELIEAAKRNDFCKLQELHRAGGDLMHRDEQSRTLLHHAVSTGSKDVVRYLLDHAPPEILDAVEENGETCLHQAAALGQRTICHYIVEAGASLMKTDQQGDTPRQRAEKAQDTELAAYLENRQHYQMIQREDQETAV
Experimental: as §1, §2, §3

DGK α kinase = biological target: T3, DGK α kinase (Homo sapiens, UniProt P23743); assay: DGKalpha kinase ADP Glo assay run by Reaction Biology Corp.; type: biochemical; settings: 2 nM kinase, 50 µM ATP, 500 μM DLG, 10-dose duplicate
T3 construct: purchased Reaction Biology Corp. (contract assay service)
T3 sequence (P23743 whole entry): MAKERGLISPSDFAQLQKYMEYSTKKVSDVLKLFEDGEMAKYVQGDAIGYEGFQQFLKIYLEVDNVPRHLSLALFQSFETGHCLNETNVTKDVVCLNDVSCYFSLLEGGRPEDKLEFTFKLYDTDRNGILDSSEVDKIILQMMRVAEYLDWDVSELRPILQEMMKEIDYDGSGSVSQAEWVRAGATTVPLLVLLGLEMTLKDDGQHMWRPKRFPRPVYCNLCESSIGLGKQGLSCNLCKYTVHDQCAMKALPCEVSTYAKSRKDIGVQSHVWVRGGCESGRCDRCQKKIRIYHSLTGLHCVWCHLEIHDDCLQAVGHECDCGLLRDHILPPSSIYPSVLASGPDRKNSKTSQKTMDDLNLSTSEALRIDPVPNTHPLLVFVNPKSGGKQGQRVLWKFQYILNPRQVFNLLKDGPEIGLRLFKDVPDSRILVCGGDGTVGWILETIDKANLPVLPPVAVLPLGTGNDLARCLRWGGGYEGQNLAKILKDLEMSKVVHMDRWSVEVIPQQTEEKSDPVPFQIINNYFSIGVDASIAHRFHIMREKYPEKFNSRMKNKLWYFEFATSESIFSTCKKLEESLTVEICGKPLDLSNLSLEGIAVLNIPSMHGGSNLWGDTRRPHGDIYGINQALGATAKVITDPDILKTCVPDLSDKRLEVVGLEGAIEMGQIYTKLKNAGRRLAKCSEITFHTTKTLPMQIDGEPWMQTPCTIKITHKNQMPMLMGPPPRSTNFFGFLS
Experimental: (§4) DGK α and ζ kinases use ATP to phosphorylate the substrate 1,2-dilauroyl-sn-glycerol (DLG). ATP is converted to ADP as a result of this enzymatic reaction.
(§5) After the kinase reaction, an ATP-depletion reagent is added to terminate the kinase reaction and deplete any remaining ATP, leaving only ADP. Second, a detection reagent is added to simultaneously convert ADP to ATP and allow the newly synthesized ATP to be converted to light using a coupled luciferase/luciferin reaction.
(§6) DGK α and ζ kinase ADP Glo assays were ran by Reaction Biology Corp., 1 Great Valley Parkway, Suite 2, Malvern, 19355, PA, USA. Information provided by the service provider are the following: DGK α and ζ kinases were used at 2 nM final concentration. Reactions were carried out at 50 µM ATP. 500 μM of the substrate DLG (Dilauroyl-sn-glycerol) was used.

DGK ζ kinase = biological target: T4, DGK ζ kinase (Homo sapiens, UniProt Q13574); assay: DGKzeta kinase ADP Glo assay run by Reaction Biology Corp.; type: biochemical; settings: 2 nM kinase, 50 µM ATP, 500 μM DLG, 10-dose duplicate
T4 construct: purchased Reaction Biology Corp. (contract assay service)
T4 sequence (Q13574 whole entry): as the sequence (Q13574 whole entry) above
Experimental: as §4, §5, §6

primary human T-cells = assay: Proliferation assay (5 days, CellTiter-Glo, CD3-stimulated T-cells); type: cell-based
How it was run: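 Proliferation read-out: ATP luminescence (CellTiter-Glo 2.0) at day 5 in expanded primary human T-cells on CD3 antibody-coated plates, with PBS-only plates as a counter screen. Compounds in 5–6 pt series (factor 3.333, top 20 or 10 μM final). Values are normalized to DMSO (neutral) and 20 μM reference A1 (100%), from sigmoidal fits.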

T1 sequence (P23743 whole entry): as the sequence (P23743 whole entry) above

For CN1CCCC(F)(c2nnc(-c3ccc4c(c3)N(Cc3ccc(-c5noc(C(F)(F)F)n5)cc3)C(=O)[C@@H](N)CS4(=O)=O)o2)C1 (stereo partly drawn) [Example 49, (3R)-3-amino-7-[5-(3-fluoro-1-methyl-3-piperidyl)-1,3,4-oxadiazol-2-yl]-1,1-dioxo-5-[[4-[5-(trifluoromethyl)-1,2,4-oxadiazol-3-yl]phenyl]methyl]-2,3-dihydro-1λ^6,5-benzothiazepin-4-one], the IC50 [1] was 17800 nM, the IC50 [2] was 3100 nM and the IC50 (DGK α kinase) was 227 nM. For the same compound, the IC50 (DGK ζ kinase) was 365 nM, the “Emax proliferation (% activation)” value (primary human T-cells; CD3 condition, normalised to DMSO (neutral) and 20 μM reference compound A1 = 100%) was 86 % activation and the EC50 (primary human T-cells; Homo sapiens, T-cell, 120 h, CD3-stimulated primary human T-cells, 5 days, CellTiter-Glo, fitted sigmoidal curve, read-out: Tcell Proliferation CD3 EC50) was 122 nM.

— patent US20260138976A1 (Hoffmann-La Roche Inc., priority 2022, published 2026)
